Test [1] has as its system CHOP and BiP. The experiment in a line: ER-stress biomarkers (Western blot), HepG-2. The format is cell-based, human. As to conditions: tunicamycin 25 μg/mL. How it is done:
(§1) HepG-2 cells and HUVEC were treated (or not) with 0.1 mg/mL FDP-NV-BSA as described above. Treatment with vincristine (200 μg/mL) was used as a positive control for apoptosis, and with tunicamycin (25 μg/mL) as a positive control for ER-stress. A rabbit polyclonal antibody against caspase 3 (Cell Sign. Techn), which recognizes both the cleaved and the non-cleaved protein, was used for apoptosis detection. Rabbit mAb (clone C50B12) against BiP and mouse mAb (clone L63F7) against Chop (both from Cell Sign. Techn) were used for the detection of ER-stress. Equal loading of proteins was verified by membrane stripping and re-probing with an anti-actin mouse monoclonal antibody (Sigma Inc.).
On the technique in general: In western blotting, separated proteins are transferred to a membrane and probed.

The test system of test [2] is CHOP and BiP. The experiment in a line: ER-stress biomarkers (Western blot), HUVEC. In kind it is cell-based, human. The note with it: tunicamycin 25 μg/mL. How it is done:
as §1

The subject of test [3] is HepG-2 cells. The experiment in a line: Cell counting assay, HepG-2. In kind it is cell-based. The note with it: Homo sapiens, HepG2; vincristine 50 μg/mL, 24 hours; read-out: proliferation, % of controls. The method, then:
(§2) Cell counting was performed. The HepG-2 cell line was purchased from American Type Culture Collection (ATTC) (Manassas, Va., USA). Primary HUVEC were purchased from Lonza and used for experiments between the 5th-8th passages. Cells maintained (37° C. at 5% CO2 atmosphere) in their respective culture media as described above. HepG-2 and HUVEC were ‘seeded’ in 96-well plates (2×10^3 per well in 100 μL medium) and treated or not with FDP-NV-BSA for 24 hours. In each experiment, vincristine (50 μg/mL), a cell-cycle proliferation inhibitor, was added as a positive control. At 24 hrs, the medium was removed, the cells were fixed with 4% paraformaldehyde (PFA, ThermoFisher Sci) and the nuclei were stained using DAPI (4′,6-diamino-2-phenylindole, dihydrochloride, ThermoFisher Sci). The plates were analyzed in a fluorescence microscope (Olympus IX81, Olympus, Tokyo, Japan) by imaging 7 observation fields for each well using 100× magnification and DAPI (blue filter) for nuclei visualization, and TRITC (red filter) for FNDP-NV-BSA visualization. The number of viable cells in each field was determined by analysis of DAPI stained nuclei using ImageJ software (National Institutes of Health, Bethesda, Md., USA) with a digitally set-up cell counter.

In test [4] the test system is HUVEC. The experiment in a line: Cell counting assay, HUVEC. The format is cell-based. As to conditions: Homo sapiens, vincristine 50 μg/mL, 24 hours, read-out: proliferation, % of controls. How it is done:
as §2

The subject of test [5] is HepG-2 cells. The experiment in a line: MTT assay (redox state), HepG-2. As to conditions: vincristine 50 μg/mL, 24 hours. The format is cell-based, human. How it is done: (§3) The MTT assay was performed as a colorimetric assay using the Cell Proliferation Assay Kit (ThermoFisher Sci), composed of component A (3-(4,5-dimethylthiazol-2-yl)-2,5-diphenyltetrazolium bromide (MTT)) and component B (SDS (sodium dodecyl sulfate)) according to manufacturer's protocol. Briefly, HepG-2 cells and HUVEC were seeded in 96-well plates at a density of 1×10^4 cells per well in media described above for each cell type. Cells were treated or not with FDP-NV-BSA or vincristine (50 μg/mL) for 24 hours. Media (100 μL) were changed to phenol red-free DMEM (Dulbecco's Modified Eagle Medium) (ThermoFisher Sci), containing MTT component A. Plates were incubated for 4 hours, and cells lysed by adding equal volumes of 10% SDS (kit component B). Plates were incubated overnight and read using an ELISA plate reader ELx800 (BioTek, Winooski, Vt., USA) at 562 nm wavelength.
For orientation: Tetrazolium assays rely on reduction of a dye to a coloured formazan, in cell work by metabolically active cells.

The test system of test [6] is HUVEC. The experiment in a line: MTT assay (redox state), HUVEC. In kind it is cell-based, human. The note with it: vincristine 50 μg/mL, 24 hours. How it is done:
as §3

As for tunicamycin, the ER-stress protein activation entry in the test with CHOP and BiP [1] is given as “sensitive”; with CHOP and BiP [2] it was “sensitive”.

Take `CC[C@]1(O)C[C@H]2CN(CCc3c([nH]c4ccccc34)[C@@](C(=O)OC)(c3cc4c(cc3OC)N(C=O)[C@H]3[C@@](O)(C(=O)OC)[C@H](OC(C)=O)[C@]5(CC)C=CCN6CC[C@]43[C@@H]65)C2)C1` [vincristine]: the activity at 50 µg/mL with HepG-2 cells [3] was 50%; in the test on HUVEC [4] it was 80%. For the same compound, the “redox activity, % of normal controls” value in the test on HepG-2 cells [5] and in the test with HUVEC [6] was 25-30% each time.

Values taken from patent US20220362399A1, “COMPOSITIONS AND ARTICLES COMPRISING (NANO)DIAMOND PARTICLES” (Debina Diagnostics, Inc., priority 2019, published 2022).
